# Source: publication PMC11480411, “Mucosal sugars delineate pyrazine vs pyrazinone autoinducer signaling in Klebsiella oxytoca” (Nature Communications, 2024)
# Legend:
# Assay in all cases: PRESTO-Tango GPCR screen
# Type in all cases: cell-based
# Settings in all cases: 100 µM
# CCR10 = biological target: T1, CCR10 (Homo sapiens, UniProt P46092)
# T1 construct: purchased PRESTO-Tango GPCR kit (Roth lab / Addgene)
# How it was run: (§1)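 In this arrestin-recruitment reporter assay, HEK293-derived HTLA cells expressing a transfected receptor-Tango fusion are treated for 20 h with compound at a final 100 μM. Luciferase output is quantified with Bright-Glo and reported relative to PBS.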
# NPS = biological target: T2, NPS (Homo sapiens, UniProt Q6W5P4)
# T2 construct: purchased PRESTO-Tango GPCR kit (Roth lab / Addgene)
# How it was run: as §1
# OPRD1 = biological target: T3, OPRD1 (Homo sapiens, UniProt P41143)
# T3 construct: purchased PRESTO-Tango GPCR kit (Roth lab / Addgene)
# How it was run: as §1
# GLP1R = biological target: T4, GLP1R (Homo sapiens, UniProt P43220)
# T4 construct: purchased PRESTO-Tango GPCR kit (Roth lab / Addgene)
# How it was run: as §1
# GPR34 = biological target: T5, GPR34 (Homo sapiens, UniProt Q9UPC5)
# T5 construct: purchased PRESTO-Tango GPCR kit (Roth lab / Addgene)
# How it was run: as §1
# GPR32 = biological target: T6, GPR32 (Homo sapiens, UniProt O75388)
# T6 construct: purchased PRESTO-Tango GPCR kit (Roth lab / Addgene)
# How it was run: as §1
# GPR82 = biological target: T7, GPR82 (Homo sapiens, UniProt Q96P67)
# T7 construct: purchased PRESTO-Tango GPCR kit (Roth lab / Addgene)
# How it was run: as §1
# GAL3 = biological target: T8, GAL3 (Homo sapiens, UniProt O60755)
# T8 construct: purchased PRESTO-Tango GPCR kit (Roth lab / Addgene)
# How it was run: as §1
# ELTD1 = biological target: T9, ELTD1 (Homo sapiens, UniProt Q9HBW9)
# T9 construct: purchased PRESTO-Tango GPCR kit (Roth lab / Addgene)
# How it was run: as §1
# GRM1 = biological target: T10, GRM1 (Homo sapiens, UniProt Q13255)
# T10 construct: purchased PRESTO-Tango GPCR kit (Roth lab / Addgene)
# How it was run: as §1
# GPR65 = biological target: T11, GPR65 (Homo sapiens, UniProt Q8IYL9)
# T11 construct: purchased PRESTO-Tango GPCR kit (Roth lab / Addgene)
# How it was run: as §1
# GPR171 = biological target: T12, GPR171 (Homo sapiens, UniProt O14626)
# T12 construct: purchased PRESTO-Tango GPCR kit (Roth lab / Addgene)
# How it was run: as §1
# TAAR2 = biological target: T13, TAAR2 (Homo sapiens, UniProt Q9P1P5)
# T13 construct: purchased PRESTO-Tango GPCR kit (Roth lab / Addgene)
# How it was run: as §1
# GIPR = biological target: T14, GIPR (Homo sapiens, UniProt P48546)
# T14 construct: purchased PRESTO-Tango GPCR kit (Roth lab / Addgene)
# How it was run: as §1
# S1PR5 = biological target: T15, S1PR5 (Homo sapiens, UniProt Q9H228)
# T15 construct: purchased PRESTO-Tango GPCR kit (Roth lab / Addgene)
# How it was run: as §1
# PTGER1 = biological target: T16, PTGER1 (Homo sapiens, UniProt P34995)
# T16 construct: purchased PRESTO-Tango GPCR kit (Roth lab / Addgene)
# How it was run: as §1
# LPAR4 = biological target: T17, LPAR4 (Homo sapiens, UniProt Q99677)
# T17 construct: purchased PRESTO-Tango GPCR kit (Roth lab / Addgene)
# How it was run: as §1
# CXCR1 = biological target: T18, CXCR1 (Homo sapiens, UniProt P25024)
# T18 construct: purchased PRESTO-Tango GPCR kit (Roth lab / Addgene)
# How it was run: as §1
# GPR141 = biological target: T19, GPR141 (Homo sapiens, UniProt Q7Z602)
# T19 construct: purchased PRESTO-Tango GPCR kit (Roth lab / Addgene)
# How it was run: as §1
# GPR35 = biological target: T20, GPR35 (Homo sapiens, UniProt Q9HC97)
# T20 construct: purchased PRESTO-Tango GPCR kit (Roth lab / Addgene)
# How it was run: as §1
# CCR5 = biological target: T21, CCR5 (Homo sapiens, UniProt P51681)
# T21 construct: purchased PRESTO-Tango GPCR kit (Roth lab / Addgene)
# How it was run: as §1
# GPR115 = biological target: T22, GPR115 (Homo sapiens, UniProt Q8IZF3)
# T22 construct: purchased PRESTO-Tango GPCR kit (Roth lab / Addgene)
# How it was run: as §1
# ADRA2C = biological target: T23, ADRA2C (Homo sapiens, UniProt P18825)
# T23 construct: purchased PRESTO-Tango GPCR kit (Roth lab / Addgene)
# How it was run: as §1
# TACR2 = biological target: T24, TACR2 (Homo sapiens, UniProt P21452)
# T24 construct: purchased PRESTO-Tango GPCR kit (Roth lab / Addgene)
# How it was run: as §1
# GPR78 = biological target: T25, GPR78 (Homo sapiens, UniProt Q96P69)
# T25 construct: purchased PRESTO-Tango GPCR kit (Roth lab / Addgene)
# How it was run: as §1
# NMUR2 = biological target: T26, NMUR2 (Homo sapiens, UniProt Q9GZQ4)
# T26 construct: purchased PRESTO-Tango GPCR kit (Roth lab / Addgene)
# How it was run: as §1
# P2RY10 = biological target: T27, P2RY10 (Homo sapiens, UniProt O00398)
# T27 construct: purchased PRESTO-Tango GPCR kit (Roth lab / Addgene)
# How it was run: as §1
# FPR2 = biological target: T28, FPR2 (Homo sapiens, UniProt P25090)
# T28 construct: purchased PRESTO-Tango GPCR kit (Roth lab / Addgene)
# How it was run: as §1
# QRFP = biological target: T29, QRFP (Homo sapiens, UniProt Q96P65)
# T29 construct: purchased PRESTO-Tango GPCR kit (Roth lab / Addgene)
# How it was run: as §1
# GRM6 = biological target: T30, GRM6 (Homo sapiens, UniProt O15303)
# T30 construct: purchased PRESTO-Tango GPCR kit (Roth lab / Addgene)
# How it was run: as §1
# AGTR1 = biological target: T31, AGTR1 (Homo sapiens, UniProt P30556)
# T31 construct: purchased PRESTO-Tango GPCR kit (Roth lab / Addgene)
# How it was run: as §1
# GAL2 = biological target: T32, GAL2 (Homo sapiens, UniProt O43603)
# T32 construct: purchased PRESTO-Tango GPCR kit (Roth lab / Addgene)
# How it was run: as §1
# GPR21 = biological target: T33, GPR21 (Homo sapiens, UniProt Q99679)
# T33 construct: purchased PRESTO-Tango GPCR kit (Roth lab / Addgene)
# How it was run: as §1
# ADRB1 = biological target: T34, ADRB1 (Homo sapiens, UniProt P08588)
# T34 construct: purchased PRESTO-Tango GPCR kit (Roth lab / Addgene)
# How it was run: as §1
# MC4R = biological target: T35, MC4R (Homo sapiens, UniProt P32245)
# T35 construct: purchased PRESTO-Tango GPCR kit (Roth lab / Addgene)
# How it was run: as §1
# TBXA2R = biological target: T36, TBXA2R (Homo sapiens, UniProt P21731)
# T36 construct: purchased PRESTO-Tango GPCR kit (Roth lab / Addgene)
# How it was run: as §1
# T29 sequence (Q96P65 whole entry): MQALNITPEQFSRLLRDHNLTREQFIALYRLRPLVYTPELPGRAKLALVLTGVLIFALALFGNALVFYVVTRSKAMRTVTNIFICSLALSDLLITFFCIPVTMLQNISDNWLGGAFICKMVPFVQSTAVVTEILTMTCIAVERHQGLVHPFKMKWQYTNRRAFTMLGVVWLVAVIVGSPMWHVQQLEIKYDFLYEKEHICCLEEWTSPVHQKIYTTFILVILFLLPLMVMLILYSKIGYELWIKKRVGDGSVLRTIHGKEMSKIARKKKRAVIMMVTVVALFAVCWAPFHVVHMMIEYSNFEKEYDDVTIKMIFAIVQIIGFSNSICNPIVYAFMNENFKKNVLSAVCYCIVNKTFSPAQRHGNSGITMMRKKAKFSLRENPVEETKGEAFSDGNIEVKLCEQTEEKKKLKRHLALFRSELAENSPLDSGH
# T8 sequence (O60755 whole entry): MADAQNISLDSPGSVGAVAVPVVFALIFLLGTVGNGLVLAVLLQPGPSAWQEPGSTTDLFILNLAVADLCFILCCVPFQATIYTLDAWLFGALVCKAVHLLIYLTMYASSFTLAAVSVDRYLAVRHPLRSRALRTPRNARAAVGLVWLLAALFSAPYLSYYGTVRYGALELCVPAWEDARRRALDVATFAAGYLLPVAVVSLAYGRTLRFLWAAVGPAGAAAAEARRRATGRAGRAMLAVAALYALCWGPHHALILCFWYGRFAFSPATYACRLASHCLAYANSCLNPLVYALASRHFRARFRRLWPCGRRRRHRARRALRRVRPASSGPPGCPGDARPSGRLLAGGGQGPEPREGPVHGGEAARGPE
# T25 sequence (Q96P69 whole entry): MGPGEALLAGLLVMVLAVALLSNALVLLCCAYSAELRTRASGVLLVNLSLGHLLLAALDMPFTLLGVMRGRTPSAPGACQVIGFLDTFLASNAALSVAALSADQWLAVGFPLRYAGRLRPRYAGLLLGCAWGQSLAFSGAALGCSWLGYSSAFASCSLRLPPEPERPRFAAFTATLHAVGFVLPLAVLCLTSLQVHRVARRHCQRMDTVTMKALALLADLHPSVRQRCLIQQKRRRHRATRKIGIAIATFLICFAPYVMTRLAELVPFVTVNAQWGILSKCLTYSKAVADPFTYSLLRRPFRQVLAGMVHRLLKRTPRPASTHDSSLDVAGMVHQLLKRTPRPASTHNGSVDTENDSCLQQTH
# T2 sequence (Q6W5P4 whole entry): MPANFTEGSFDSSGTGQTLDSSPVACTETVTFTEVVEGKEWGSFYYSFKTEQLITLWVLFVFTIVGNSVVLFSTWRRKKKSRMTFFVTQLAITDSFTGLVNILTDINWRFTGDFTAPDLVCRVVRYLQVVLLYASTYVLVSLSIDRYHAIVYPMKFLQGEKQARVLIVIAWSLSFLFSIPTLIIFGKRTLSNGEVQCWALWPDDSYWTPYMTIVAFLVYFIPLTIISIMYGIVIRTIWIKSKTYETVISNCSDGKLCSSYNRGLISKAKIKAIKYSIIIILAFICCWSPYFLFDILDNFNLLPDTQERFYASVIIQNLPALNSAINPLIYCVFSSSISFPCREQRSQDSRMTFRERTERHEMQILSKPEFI
# T1 sequence (P46092 whole entry): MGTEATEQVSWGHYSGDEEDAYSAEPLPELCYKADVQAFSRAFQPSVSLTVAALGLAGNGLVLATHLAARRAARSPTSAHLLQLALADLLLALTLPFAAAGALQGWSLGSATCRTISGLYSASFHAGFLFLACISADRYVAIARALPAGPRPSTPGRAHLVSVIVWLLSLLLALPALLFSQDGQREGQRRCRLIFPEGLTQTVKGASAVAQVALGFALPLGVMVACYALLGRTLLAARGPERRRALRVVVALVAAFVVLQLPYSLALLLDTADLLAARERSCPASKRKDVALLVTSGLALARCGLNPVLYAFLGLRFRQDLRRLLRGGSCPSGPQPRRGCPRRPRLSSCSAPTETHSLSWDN
# T5 sequence (Q9UPC5 whole entry): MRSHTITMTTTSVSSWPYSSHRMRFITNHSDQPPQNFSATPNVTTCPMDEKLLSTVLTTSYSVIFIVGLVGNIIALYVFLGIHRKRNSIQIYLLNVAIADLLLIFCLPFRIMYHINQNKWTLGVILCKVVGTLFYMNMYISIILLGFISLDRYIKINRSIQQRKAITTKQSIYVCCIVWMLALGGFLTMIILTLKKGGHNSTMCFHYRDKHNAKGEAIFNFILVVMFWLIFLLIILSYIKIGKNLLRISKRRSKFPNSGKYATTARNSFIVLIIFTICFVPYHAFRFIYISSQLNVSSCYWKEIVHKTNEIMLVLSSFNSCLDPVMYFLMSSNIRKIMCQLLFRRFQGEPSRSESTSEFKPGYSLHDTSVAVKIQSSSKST
# T28 sequence (P25090 whole entry): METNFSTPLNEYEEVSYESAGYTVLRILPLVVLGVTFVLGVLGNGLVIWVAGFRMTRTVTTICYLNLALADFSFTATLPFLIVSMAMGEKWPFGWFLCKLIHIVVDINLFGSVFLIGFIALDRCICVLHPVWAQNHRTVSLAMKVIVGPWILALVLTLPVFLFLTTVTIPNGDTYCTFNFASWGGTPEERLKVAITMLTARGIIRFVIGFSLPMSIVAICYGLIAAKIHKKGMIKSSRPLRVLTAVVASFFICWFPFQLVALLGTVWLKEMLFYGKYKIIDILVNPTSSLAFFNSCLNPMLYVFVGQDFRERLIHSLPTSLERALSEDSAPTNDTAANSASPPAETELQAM
# T35 sequence (P32245 whole entry): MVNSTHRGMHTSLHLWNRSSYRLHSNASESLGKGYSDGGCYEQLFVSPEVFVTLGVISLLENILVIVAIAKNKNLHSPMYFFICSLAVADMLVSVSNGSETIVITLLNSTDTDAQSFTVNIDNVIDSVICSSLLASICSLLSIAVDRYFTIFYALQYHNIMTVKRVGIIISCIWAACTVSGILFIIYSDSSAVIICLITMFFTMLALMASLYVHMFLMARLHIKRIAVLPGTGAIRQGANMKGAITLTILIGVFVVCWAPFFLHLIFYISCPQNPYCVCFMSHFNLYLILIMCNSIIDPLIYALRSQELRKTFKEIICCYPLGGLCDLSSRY
# T14 sequence (P48546 22-466): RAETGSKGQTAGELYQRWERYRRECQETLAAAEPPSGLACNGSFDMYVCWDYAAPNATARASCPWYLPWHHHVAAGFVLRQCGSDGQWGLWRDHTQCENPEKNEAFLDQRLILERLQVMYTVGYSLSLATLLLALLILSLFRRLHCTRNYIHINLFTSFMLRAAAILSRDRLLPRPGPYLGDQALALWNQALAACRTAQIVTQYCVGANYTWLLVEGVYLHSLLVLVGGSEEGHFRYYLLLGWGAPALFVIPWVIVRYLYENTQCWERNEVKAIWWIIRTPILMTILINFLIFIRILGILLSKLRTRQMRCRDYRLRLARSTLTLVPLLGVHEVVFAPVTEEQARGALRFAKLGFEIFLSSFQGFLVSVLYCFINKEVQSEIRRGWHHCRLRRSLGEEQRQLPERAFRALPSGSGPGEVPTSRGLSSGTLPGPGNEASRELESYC
# T15 sequence (Q9H228 whole entry): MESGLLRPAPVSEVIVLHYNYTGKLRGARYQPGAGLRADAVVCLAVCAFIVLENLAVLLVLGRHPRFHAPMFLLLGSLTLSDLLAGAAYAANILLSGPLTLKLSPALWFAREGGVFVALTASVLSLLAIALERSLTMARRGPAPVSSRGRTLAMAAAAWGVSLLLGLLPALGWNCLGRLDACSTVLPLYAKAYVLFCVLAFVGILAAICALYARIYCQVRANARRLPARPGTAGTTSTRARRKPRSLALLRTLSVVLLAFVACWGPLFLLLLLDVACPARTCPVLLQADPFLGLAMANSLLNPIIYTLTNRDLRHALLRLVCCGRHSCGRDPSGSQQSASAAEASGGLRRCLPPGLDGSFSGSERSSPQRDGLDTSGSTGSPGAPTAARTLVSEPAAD
# T7 sequence (Q96P67 whole entry): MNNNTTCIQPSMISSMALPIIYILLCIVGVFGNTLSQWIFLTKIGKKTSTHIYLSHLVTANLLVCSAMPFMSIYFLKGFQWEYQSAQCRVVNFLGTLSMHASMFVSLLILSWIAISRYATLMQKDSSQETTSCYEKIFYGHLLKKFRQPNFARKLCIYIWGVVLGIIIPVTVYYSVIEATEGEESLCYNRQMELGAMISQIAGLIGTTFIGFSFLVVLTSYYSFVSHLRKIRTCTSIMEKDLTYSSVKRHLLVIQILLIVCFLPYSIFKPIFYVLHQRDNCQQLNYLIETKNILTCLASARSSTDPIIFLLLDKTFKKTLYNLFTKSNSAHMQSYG
# T32 sequence (O43603 whole entry): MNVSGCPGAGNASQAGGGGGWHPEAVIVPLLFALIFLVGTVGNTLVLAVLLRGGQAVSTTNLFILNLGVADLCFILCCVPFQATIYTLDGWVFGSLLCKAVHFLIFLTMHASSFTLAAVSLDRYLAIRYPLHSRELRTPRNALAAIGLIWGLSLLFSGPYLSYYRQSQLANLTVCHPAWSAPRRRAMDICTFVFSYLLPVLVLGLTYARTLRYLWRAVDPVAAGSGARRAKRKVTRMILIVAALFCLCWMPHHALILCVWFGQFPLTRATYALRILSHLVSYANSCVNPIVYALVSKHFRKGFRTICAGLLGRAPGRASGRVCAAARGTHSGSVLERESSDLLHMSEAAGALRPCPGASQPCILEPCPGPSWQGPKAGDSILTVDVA
# T21 sequence (P51681 whole entry): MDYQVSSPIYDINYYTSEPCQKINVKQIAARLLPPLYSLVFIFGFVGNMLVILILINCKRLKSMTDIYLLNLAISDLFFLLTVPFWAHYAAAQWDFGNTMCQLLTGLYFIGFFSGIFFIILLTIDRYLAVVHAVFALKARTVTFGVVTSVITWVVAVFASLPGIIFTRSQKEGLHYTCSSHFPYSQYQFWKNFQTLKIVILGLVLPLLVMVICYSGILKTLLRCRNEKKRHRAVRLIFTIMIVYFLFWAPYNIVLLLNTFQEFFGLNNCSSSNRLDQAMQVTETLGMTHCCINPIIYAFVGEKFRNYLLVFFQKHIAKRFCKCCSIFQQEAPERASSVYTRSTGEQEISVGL
SMILES,GPCR activation (heatmap value) (CCR10),GPCR activation (heatmap value) (NPS),GPCR activation (heatmap value) (OPRD1),GPCR activation (heatmap value) (GLP1R),GPCR activation (heatmap value) (GPR34),GPCR activation (heatmap value) (GPR32),GPCR activation (heatmap value) (GPR82),GPCR activation (heatmap value) (GAL3),GPCR activation (heatmap value) (ELTD1),GPCR activation (heatmap value) (GRM1),GPCR activation (heatmap value) (GPR65),GPCR activation (heatmap value) (GPR171),GPCR activation (heatmap value) (TAAR2),GPCR activation (heatmap value) (GIPR),GPCR activation (heatmap value) (S1PR5),GPCR activation (heatmap value) (PTGER1),GPCR activation (heatmap value) (LPAR4),GPCR activation (heatmap value) (CXCR1),GPCR activation (heatmap value) (GPR141),GPCR activation (heatmap value) (GPR35),further results
CC(C)Cc1ncc(CCCNC(=N)N)[nH]c1=O [compound 3],0.9946,-0.7734,1.451,0.3036,0.3024,0.07937,0.0221,0.02852,0.3234,0.374,-0.2267,0.9197,0.1553,0.1911,0,-0.585,0.3739,0.1868,-0.1192,-0.5823,GPCR activation (heatmap value) (CCR5): -0.6917; GPCR activation (heatmap value) (GPR115): 0.3053; GPCR activation (heatmap value) (ADRA2C): 0.2266; GPCR activation (heatmap value) (TACR2): 0.2945; GPCR activation (heatmap value) (GPR78): -0.2783; GPCR activation (heatmap value) (NMUR2): 0.09545; GPCR activation (heatmap value) (P2RY10): -0.2181; GPCR activation (heatmap value) (FPR2): 0.522; GPCR activation (heatmap value) (QRFP): 0.1257; GPCR activation (heatmap value) (GRM6): 0.6597; GPCR activation (heatmap value) (AGTR1): 0.0619; GPCR activation (heatmap value) (GAL2): 0.1995; GPCR activation (heatmap value) (GPR21): 1.034; GPCR activation (heatmap value) (ADRB1): 0.4729; GPCR activation (heatmap value) (MC4R): 0.1054; GPCR activation (heatmap value) (TBXA2R): 0.04774
CC(C)Cc1ncc(CCCCNC(=N)N)[nH]c1=O [3-Homo],0.7826,-0.3425,-0.6579,0.1789,-0.6255,-0.1389,-0.5831,0.4523,0.08719,-0.1347,0.1433,-0.9424,0.3187,0.1024,-0.7802,0.737,-0.163,0.5406,0.2402,0.1027,GPCR activation (heatmap value) (CCR5): 0.4723; GPCR activation (heatmap value) (GPR115): -0.2915; GPCR activation (heatmap value) (ADRA2C): 0.6954; GPCR activation (heatmap value) (TACR2): 0.6939; GPCR activation (heatmap value) (GPR78): -0.4102; GPCR activation (heatmap value) (NMUR2): 0.3619; GPCR activation (heatmap value) (P2RY10): -0.398; GPCR activation (heatmap value) (FPR2): 0.05882; GPCR activation (heatmap value) (QRFP): 0.525; GPCR activation (heatmap value) (GRM6): -0.3175; GPCR activation (heatmap value) (AGTR1): 0.01764; GPCR activation (heatmap value) (GAL2): 0.5878; GPCR activation (heatmap value) (GPR21): 0.4357; GPCR activation (heatmap value) (ADRB1): 0.6163; GPCR activation (heatmap value) (MC4R): -0.9791; GPCR activation (heatmap value) (TBXA2R): 0.3386
